The record followed here is paper PMC4326489, “Efficacy and pharmacokinetic evaluation of a novel anti-malarial compound (NP046) in a mouse model” (Malaria Journal, 2015).

Data set [1] deals with Plasmodium berghei transfected with green fluorescence protein (strain ANKA). Nature of the data set: In vivo efficacy (four-day dosing) in P. berghei-infected mice, % parasitaemia by flow cytometry. Further details: species or system Plasmodium berghei in male C57BL/6 mice. The settings on record: day five post-infection; for % parasitaemia: once a day for four days, mean ± S.E.M; for % growth inhibition: relative to negative control (placebo). How it is done: Plasmodium berghei transfected with green fluorescence protein (strain ANKA), a chloroquine-sensitive strain, was stored in liquid nitrogen. Parasites were thawed and administered intraperitoneally (IP) to infect two donor mice a week before the experiment commenced. […] Finally, each of the test animals received 200 μl of the P. berghei-infected RBCs (1×10^7 per 200 μl PBS) IP to infect them with the parasite. There were three animals per dose group, and each of them received 200 μl of NP046 in water orally and intravenously (volume adjusted relative to the weight of mouse) at their respective dose concentration as shown below:
The test compound was administered to the animals once a day for four days. […] Blood samples were collected via tail bleeding in tubes containing PBS on day 5, and % parasitaemia was determined with FACSCalibur™ using the software CellQuestPro [5].
Finally, the percentage parasite growth inhibition was calculated using the following equation [6]: [drawing 1]

Data set [2] can be described thus: Plasma protein binding by ultracentrifugation. Type of data set: in vitro ADME. The conditions noted are these: read-out: PPB (plasma protein binding) (converted). How it is done:
In this study, since the NSB > 5%, ultracentrifugation was used to assess the PPB property of NP046 [for the methodology see Additional file 3]. […] Procedure for the determination of PPB by Ultracentrifugation (procedure was adopted from Barré et al., 1985; with a slight modification). Thaw plasma aliquots in a water bath at 22 °C. Centrifuge plasma aliquots at 2000 g for 5 minutes, and decant and pool the supernatant. Prepare plasma and PBS samples at a high concentration (1000 ng/ml), and low concentration (10 ng/ml) for all the test compounds under investigation. The PBS samples were used to determine the response of the unbound (or free) drug, and were not subjected to ultracentrifugation. Plasma samples were incubated at 37 °C in a water bath for 20minutes to allow samples to reach physiological temperature, and then the samples were aliquoted into BECKMAN Quick-Seal centrifuge tubes (13 ml). Ultracentrifuge plasma samples at 2 x 10^5 g for 6 hours at 37 °C using BECKMAN L8-[…] ultracentrifuge (80Ti). The supernatant was extracted, and its response was compared with that of the PBS extract after being analysed by the validated LC-MS/MS bioanalytical drug assay methods stated in chapters 8 and 9. PPB% was calculated using the equation: Where T = total drug concentration; and F = free drug concentration.

Data set [3] can be described thus: Non-specific binding to the micro-partition device (ultrafiltration). Type of data set: in vitro ADME. The conditions noted are these: PBS pH 7.4. How it is done:
PPB (plasma protein binding), the extent to which a drug binds to protein in plasma, can affect the PK-PD properties of a drug. Thus, determining the PPB property of a drug in the early stage of drug development process is crucial and a prerequisite for lead prioritization. Initially the PPB assay was performed using an ultrafiltration method [see Additional file 3], which depends on centrifugal force to move the unbound analyte of interest through a size-selective membrane. Ultrafiltration is recommended for the determination of PPB property if the non-specific binding (NSB) of the test drug to the micro-partition device is less than 5%. If NSB > 5%, an alternative technique such as equilibrium dialysis or ultracentrifugation should be used.
Procedure for the determination of nonspecific binding by Ultrafiltration (procedure was adopted from Dow, 2002; with a slight modification).
0.01 M PBS, pH 7.4, was prepared by dissolving 4 g of NaCl, 0.1 g of KCl, 0.722 g of Na2HPO4, and 0.12 g of KH2PO4 with water to a final volume of 500 ml.
Primary stock solutions of TK900D, TK900E, and NP046 at 100 µg/ml; and secondary stock solutions at 1 µg/ml in methanol were prepared. […]
The ultrafiltrate were extracted and analysed quantitatively using the validated LC-MS/MS bioanalytical drug assay methods specified in Chapters 8 and 9.
The %NSB were calculated using the equation: […]

`Oc1cc(CCCc2ccc(F)cc2)ccc1CN1CCCCC1` [NP046, 5-(3-(4-fluorophenyl)propyl)-2-(piperidin-1-ylmethyl)phenol]: the “% parasitaemia” value in data set [1] (1 mg/kg IV) is on record as 10.2 ± 1.75%; in data set [1] (5 mg/kg IV), 4.05 ± 0.12%; in data set [1] (10 mg/kg oral), 24.3 ± 0.80%; in data set [1] (50 mg/kg oral) it was 16.7 ± 3.34%. Also, the “% growth inhibition” value stood at 87.4% in data set [1] (5 mg/kg IV), 24.6% in data set [1] (10 mg/kg oral) and 47.3% in data set [1] (50 mg/kg oral). In addition, in data set [2] (at 10 ng/ml), the fraction unbound at 6 h, 10 ng/ml was 0.797. In data set [2] (at 1000 ng/ml), the fraction unbound at 6 h, 1000 ng/ml was 0.72. In addition, in data set [3], the “NSB (non-specific binding to the micro-partition device)” value is recorded as > 5%.
